Series [1] relates to HL 60 cells. Briefly: HL 60 differentiation induction (NBT reduction to formazan). It counts as cell-based. As to conditions: Homo sapiens, 96 hours incubation, formazan at 650 nm, read-out: ED50 (differentiation induction of HL 60 cells to macrophages). The method, then:
HL 60 cells are cultivated in tissue-culture medium (RPMI-10% fetal calf serum) at 37° C. in an atmosphere of 5% CO2 in air.
For substance testing, the cells are centrifuged off and 2.8 ×10^5 cells/ml in phenol red-free tissue-culture medium are taken up. The test substances are dissolved in ethanol and diluted with tissue-culture medium without phenol red to the desired concentration. The dilution stages are mixed with the cell suspension in a ratio of 1:10 and pipetted in 100 μl each of this cell suspension mixed with substance in an indentation of a 96-hole plate. For control, a cell suspension is analogously mixed with the solvent.
After incubation over 96 hours at 37° C. in 5% CO2 in air, 100 μl of an NBT-TPA solution (nitro blue tetrazolium (NBT), final concentration in the batch of 1 mg/ml, tetradecanoyl phorbol myristate-13-acetate (TPA), final concentration in the batch of 2 ×10^-7 mol/l) is pipetted in the cell suspension in every indentation of the 96-hole plate.
By incubation over 2 hours at 37° C. and 5% CO2 in air, NBT is reduced to insoluble formazan because of the intracellular oxygen radical release, stimulated by TPA, in the cells differentiated to macrophages.
For completion of the reaction, the indentations of the 96-hole plate are suctioned off, and the adhering cells are fixed by adding methanol and dried after fixing.
To dissolve the formed intracellular formazan crystals, 100 μl of potassium hydroxide (2 val/l) and 100 μl of dimethyl sulfoxide are pipetted in each indentation and ultrasonically treated for 1 minute. The concentration of formazan is measured by spectrophotometry at 650 nm.
The concentration of formed formazan is regarded as a measurement for the differentiation induction of the HL 60 cells to macrophages.

Series [2] is described as follows: hypercalcemic and hypercalcinuric activity in vivo. More on the design: species or system Wistar rats. As to conditions: for calcium excretion in second collecting phase (16-22 hours), result in words: 200 μg/kg s.c. versus calcitriol 2 μg/kg and solvent control; for serum calcium concentration: 22 hours after administration, solvent control 3.0 mmol/l; for calcium excretion in urine, second collecting phase (16-22 hours): after oral calcium, solvent control 1.5 μmol/animal; for calcium excretion in urine, first collecting phase (0-16 hours): solvent control 12.2 μmol/animal; for hypercalcemia induction: 200 μg/kg subcutaneous; for hypercalcemia induction / in vivo potency reduced by factor in comparison to calcitriol: male Wistar rats; for in vivo potency reduced by factor in comparison to calcitriol: calcium metabolism, subcutaneous. Here is the method:
To assess the corresponding activities of the substances according to the invention, the hypercalcemic and hypercalcinuric activity in vivo is determined. […] Urine is collected in the period of 0-16 hours after substance administration. Then, the animals orally receive 1 μmol of calcium in 6.5% klucel (hydroxypropyl cellulose) and again urine is collected for the period of 16-22 hours after substance administration. The urine volume of each fraction is measured to measure the absolute calcium excretion. After 22 hours, the animals are killed by decapitation and the blood is collected. The calcium concentration in serum and urine is determined by flame photometry.

`C=C1/C(=C\C=C2/CCC[C@]3(C)[C@@H]([C@H](C)/C=C/COCC(O)(CC)CC)CC[C@@H]23)C[C@@H](O)C[C@@H]1O` [compound 17, (5Z,7E,22E)-(1S,3R)-24-(2-Ethyl-2-hydroxybutoxy)-9,10-secochola-5,7,10(19),22-tetraene-1,3-diol]: the EC50 in series [1] came to 1 nM. In addition, in series [2], the “calcium excretion in second collecting phase (16-22 hours), result in words” value is recorded as “not significantly different to the standard calcitriol”; the hypercalcemia induction result is listed as “slight hypercalcemia”; the “in vivo potency reduced by factor in comparison to calcitriol” value was approximately 100. In addition, in series [2] (200 μg/kg s.c.), the serum calcium concentration was 3.4 mmol/L; the “calcium excretion in urine, second collecting phase (16-22 hours)” value (“calcium excretion in urine … (16-22 hours)” for short) is reported as 47.0 μmol/animal; the “calcium excretion in urine, first collecting phase (0-16 hours)” value (“calcium excretion in urine … (0-16 hours)” for short) is given as 61.7 μmol/animal.
With `C=C1/C(=C\C=C2/CCC[C@]3(C)[C@@H]([C@H](C)/C=C/COCC(C)(C)O)CC[C@@H]23)C[C@@H](O)C[C@@H]1O` [compound 16, (5Z,7E,22E)-(1S,3R)-24-(2-Hydroxy-2-methylpropoxy)-9,10-secochola-5,7,10(19),22-tetraene-1,3-diol], the EC50 in series [1] amounted to 3.2 nM. Besides, in series [2], the “calcium excretion in second collecting phase (16-22 hours), result in words” value is reported as “not increased relative to the solvent control”; the hypercalcemia induction entry was “no hypercalcemia”; the “in vivo potency reduced by factor in comparison to calcitriol” value is reported as more than 100. For the same molecule, in series [2] (200 μg/kg s.c.), the serum calcium concentration is 3.0 mmol/L; the “calcium excretion in urine … (16-22 hours)” value is 3.6 μmol/animal; the “calcium excretion in urine … (0-16 hours)” value is listed as 62.4 μmol/animal.
In the case of `C=C1/C(=C\C=C2/CCC[C@]3(C)[C@@H]([C@H](C)CCCC(C)(C)O)CC[C@@H]23)C[C@@H](O)C[C@@H]1O` [calcitriol, 1α,25-Dihydroxycholecalciferol, reference compound], the EC50 in series [1] was found to be 1.6 nM. Besides, in series [2] (calcitriol 2 μg/kg s.c.), the “calcium excretion in urine … (16-22 hours)” value was 25.1 μmol/animal and the “calcium excretion in urine … (0-16 hours)” value is 40.6 μmol/animal.
